From patent US7378427B2, “Processes for preparing 6-alkyl-5-arylsulfonyl-dihydrophenanthridines” (Wyeth, priority 2004, dated 2008) come the findings set out here.

The test system of one data set is C57BL/6 mice. As to the kind of experiment: Uterine wet weight increase in ovariectomized C57BL/6 mice. It is filed as in vivo. The settings on record: EE 0.01 mg/kg/day, test compound 10 mg/kg/day, gavage once daily for 5 weeks, compared to vehicle control. The protocol: Ovariectomized C57BL/6 mice (16-20 g) (Taconic) were separated into groups of 8. After 5-7 days of recuperation, the mice were fed a chow diet or an atherogenic diet (15.75% fat, 1.25% cholesterol and 0.5% sodium cholate) (Purina diet #21539). EE or test compound was administered once daily by gavage in a methylcellulose/tween vehicle (0.1 ml per mouse) for 5 weeks. At the end of the experimental period, the liver was collected and uterine wet weight was recorded.

A further data set concerns NF-κB. In words: HAECT-1 NF-κB luciferase reporter assay in Ad5-wt-ER infected cells (IL-1β induced). It is filed as cell-based, human. The following applies: Ad5-wt-ER infected HAECT-1 cells. The protocol:
Control (no ER infection) cells were processed as above without Ad5-wt-hERα virus infection.
Cells were subsequently washed with 300 μL of Dulbecco's phosphate buffered saline and lysed in 50 μL of Cell Culture Lysis Reagent (Promega). Luciferase was determined on a Wallac Victor^2 Luminometer (Gaithersburg, Md.) using 10 μL of lysate and mixing with 100 μL of Promega Luciferase Assay reagent. Creatine kinase was determined from the rate of increase in A340 following addition of 100 μL of CK assay reagent (Sigma, cat. No 47-10) to the remainder of the cell lysate.
(§1) For IC50 and EC50 calculations, mean IL-6, luciferase or CK values versus log10 of the compound concentration were fitted to a four parameter logistic equation. The IC50/EC50 value, ‘Hill slope’, upper and lower limits of the curve were iteratively estimated.
In general terms: In a reporter assay the amount or activity of a reporter protein is the signal.

Another data set concerns IL-6. In words: HAECT-1 IL-6 expression assay (ELISA) in Ad5-wt-ER infected cells (IL-1β induced). The format is cell-based, human. The following applies: Ad5-wt-ER infected HAECT-1 cells; for IC50: IL-1β, IL-6 ELISA; for IL-6 Efficacy: relative to the maximal inhibition observed with E2. The protocol: (§2) T-175 flasks of 100% confluent HAECT-1 cells (immortalized human aortic endothelial cells) were washed with 8 mL of HBSS (HEPES buffered saline solution) and infected for four hours with 6 mL of a 1:10 dilution of Ad5-wt-hERα virus (an adenovirus transfection vector that mediates CMV promoter driven expression of human ERα) in phenol red free Endothelial Cell Basal medium (Clonetics, San Diego Calif., Catalog #CC-3129) containing 0.25% bovine serum albumin (EBM-BSA). After four hours, the cells were washed with EBM-BSA and incubated overnight in the same medium. Following overnight incubation, the cells were washed with EBM-BSA and infected for 2 hours with 6 mL of a 1:10 dilution of Ad5-3×(NFκB). Luc virus (Adenovirus luciferase expression vector driven by 3 repeats of the MHC NFκb site 5′ to the thymidine kinase promoter) in EBM-BSA. After two hours, the cells were washed and incubated at 34° C. for 1 hour. The cells were then washed, trypsinized, counted and resuspended in 95% FBS/5% dimethylsulfoxide at a concentration of 4×10^6 cells/mL, frozen as 1 or 5 mL aliquots in cryo-vials and stored at −150° C. Control (no ER infection) cells were processed as above without Ad5-wt-hERα virus infection.
ERα infected HAECT-1 cells or control cells were thawed, diluted 42× in warm EBM-BSA, plated into 96-well plates at 0.1 mL/well and incubated for 4 h at 34° C. Test compounds were added to the cells as 2× stocks in EBM-BSA containing 2 ng/mL IL-1β (R&D Systems) and plates were returned to the incubator (34° C.). After 15-20 h, 100 μL aliquots of media were removed from the cells and assayed for IL-6 content using a BioSource human IL-6 ELISA Kit. Cells were subsequently washed with 300 μL of Dulbecco's phosphate buffered saline and lysed in 50 μL of Cell Culture Lysis Reagent (Promega). Luciferase was determined on a Wallac Victor^2 Luminometer (Gaithersburg, Md.) using 10 μL of lysate and mixing with 100 μL of Promega Luciferase Assay reagent. Creatine kinase was determined from the rate of increase in A340 following addition of 100 μL of CK assay reagent (Sigma, cat. No 47-10) to the remainder of the cell lysate.
as §1
(ELISA stands for enzyme-linked immunosorbent assay.)

The test system of the next data set is creatine kinase (CK). As to the kind of experiment: HAECT-1 creatine kinase (CK) expression assay in Ad5-wt-ER infected cells. It is filed as cell-based, human. The following applies: relative to the maximal stimulation observed with E2; Ad5-wt-ER infected HAECT-1 cells. The protocol: as §2, with “Luc virus (Adenovirus luciferase expression vector driven by 3 repeats of the MHC NFκb site 5′ to the thymidine kinase promoter) in EBM-BSA. After two hours, the cells were washed and incubated at 34° C. for 1 hour.” left out, “Control (no ER infection) cells were processed as above without Ad5-wt-hERα virus infection.” left out
ERα infected HAECT-1 cells or control cells were thawed, diluted 42× in warm EBM-BSA, plated into 96-well plates at 0.1 mL/well and incubated for 4 h at 34° C. […] Luciferase was determined on a Wallac Victor^2 Luminometer (Gaithersburg, Md.) using 10 μL of lysate and mixing with 100 μL of Promega Luciferase Assay reagent. Creatine kinase was determined from the rate of increase in A340 following addition of 100 μL of CK assay reagent (Sigma, cat. No 47-10) to the remainder of the cell lysate. […]

As for `C#C[C@]1(O)CC[C@H]2[C@@H]3CCc4cc(O)ccc4[C@H]3CC[C@@]21C` [EE, reference compound], in the data set with C57BL/6 mice, the “Uterine Wet Weight Increase, Efficacy (%)” value amounted to 100% and the “Uterine Wet Weight Increase, Fold Increase” value stood at 5.0.

The term IC50 denotes the midpoint of a concentration-inhibition curve. Usually melting point stands for the temperature of the solid-liquid transition. `C[C@H]1c2cc(F)ccc2-c2ccccc2N1S(=O)(=O)c1ccc(O)cc1` [Example 8, 4-[(S)-8-Fluoro-6-methyl-6H-phenanthridine-5-sulfonyl]-phenol] came in with a melting point of 193 °C. In addition, the midpoint of inhibition with NF-κB (Homo sapiens, HAECT1, IL-1β, luciferase reporter), the IC50, lay at 59 nM. For the same compound, the “NF-κB Efficacy” value in the data set with NF-κB (relative to the maximal inhibition observed with E2) amounted to 99%. The IC50 with IL-6 (Homo sapiens, HAECT1) was 303 nM. Also, the “IL-6 Efficacy” value with IL-6 was found to be 118%. In the data set with C57BL/6 mice, the “Uterine Wet Weight Increase, Efficacy (%)” value is 0% and the “Uterine Wet Weight Increase, Fold Increase” value turned out to be 0.

For the compound `C[C@H]1c2cc(F)ccc2-c2ccccc2N1S(=O)(=O)c1ccc(OS(N)(=O)=O)cc1` [Example 22, 4-{[(6S)-8-Fluoro-6-methylphenanthridin-5(6H)-yl]sulfonyl}phenyl sulfamate], the melting point is 165.5 to 167.3 °C.

Turning to `C[C@]12CC[C@@H]3c4ccc(O)cc4CC[C@H]3[C@@H]1CC[C@@H]2O` [Example E2, 17-β-estradiol, reference compound], in the data set on IL-6, the IC50 came to 1.7 nM and the “IL-6 Efficacy” value was found to be 100%. Moreover, the “CK Efficacy” value with creatine kinase (CK) is on record as 100%.
